# ChEMBL document CHEMBL2010659, “Synthesis of novel long wavelength cationic chlorins via stereoselective aldol-like condensation” (Bioorg Med Chem Lett, 2012)
# Calls of active or inactive are those of the source. The rule behind the calls is not given here.
# Legend:
# Format in all cases: functional, cell-based
# HeLa [1] = assay: Cytotoxicity against human HeLa cells up to 10 uM after 12 hrs by WST-8 assay
# HeLa [2] = assay: Cytotoxicity against human HeLa cells of light exposed compound after 12 hrs by WST-8 assay
# HeLa [3] = assay: Cytotoxicity against human HeLa cells of light exposed compound up to 10 uM after 12 hrs by WST-8 assay
Structure (SMILES),Activity (HeLa [1]),Activity (HeLa [2]),IC50 (HeLa [2]) [µM],Activity (HeLa [3])
C=Cc1c(C)c2cc3nc(c4c5[nH]c(cc6nc(cc1[nH]2)C(C)=C6CC)c(C)c5C(=O)C4)[C@@H](CCC(=O)OC)[C@@H]3C [METHYL PYROPHEOPHORBIDE A],inactive,Dose-dependent effect,0.28,Active
CCC1=C(C)c2cc3[nH]c(cc4nc(c5c6[nH]c(cc1n2)c(C)c6C(=O)N(OC)C5=O)[C@@H](CCC(=O)OC)[C@@H]4C)c(C)c3/C=C/c1ccc2ccccc2[n+]1C,inactive,Dose-dependent effect,0.97,Active
C=Cc1c(C)c2cc3nc(c4c5[nH]c(cc6nc(cc1[nH]2)C(C)=C6CC)c(C)c5C(=O)N(OC)C4=O)[C@@H](CCC(=O)OC)[C@@H]3C,inactive,Dose-dependent effect,2.71,Active
CCC1=C(C)c2cc3[nH]c(cc4nc(c5c6[nH]c(cc1n2)c(C)c6C(=O)N(OC)C5=O)[C@@H](CCC(=O)OC)[C@@H]4C)c(C)c3/C=C/c1cccc[n+]1C,inactive,Dose-dependent effect,0.11,Active
CCC1=C(C)c2cc3[nH]c(cc4nc(c5c6[nH]c(cc1n2)c(C)c6C(=O)C5)[C@@H](CCC(=O)OC)[C@@H]4C)c(C)c3/C=C/c1cc[n+](C)cc1,inactive,Dose-dependent effect,7.94,Active
CCC1=C(C)c2cc3[nH]c(cc4nc(c5c6[nH]c(cc1n2)c(C)c6C(=O)C5)[C@@H](CCC(=O)OC)[C@@H]4C)c(C)c3/C=C/c1ccc2ccccc2[n+]1C,inactive,Dose-dependent effect,5.36,Active
